Source: PubChem BioAssay AID248 (DTP/NCI, 2004)
Several values for one entry are separate records, joined by “and”; a condition that tells them apart may be missing. Equal values may be shown once. Inconclusive results and toxic doses are left out. Cut-off read from the data, not from the text of the source: active = T/C of 150% or more; inactive = T/C below 125%.

Test system: L1210 leukemia ip in BDF1 mice, survival T/C
Assay: NCI In Vivo Anticancer Drug Screen. Data for tumor model L1210 Leukemia (intraperitoneal) in B6D2F1 (BDF1) mice
Conditions: endpoint: mean survival time, higher = longer survival
How it was run: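 Value reflects the ratio of survival in compound-treated mice to survival in vehicle-treated controls, with both groups carrying the same transplanted tumor.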

[1] = dose: 100.0 mg/kg/injection, schedule: Q01DX009 (ip), vehicle: saline with Tween-80
[2] = dose: 100.0 mg/kg/injection, schedule: Q04DX003 (ip), vehicle: saline with Tween-80
[3] = dose: 200.0 mg/kg/injection, schedule: Q01DX009 (ip), vehicle: saline with Tween-80
[4] = dose: 200.0 mg/kg/injection, schedule: Q04DX003 (ip), vehicle: saline with Tween-80
[5] = dose: 400.0 mg/kg/injection, schedule: Q01DX009 (ip), vehicle: saline with Tween-80
[6] = dose: 400.0 mg/kg/injection, schedule: Q04DX003 (ip), vehicle: saline with Tween-80
[7] = dose: 100.0 mg/kg/injection, schedule: Q01DX009 (ip), vehicle: Klucel (hydroxypropylcellulose) (HPC)
[8] = dose: 200.0 mg/kg/injection, schedule: Q01DX009 (ip), vehicle: Klucel (hydroxypropylcellulose) (HPC)
[9] = dose: 400.0 mg/kg/injection, schedule: Q01DX009 (ip), vehicle: Klucel (hydroxypropylcellulose) (HPC)
[10] = dose: 100.0 mg/kg/injection, schedule: Q04DX002 (ip), vehicle: Klucel (hydroxypropylcellulose) (HPC)
[11] = dose: 200.0 mg/kg/injection, schedule: Q04DX002 (ip), vehicle: Klucel (hydroxypropylcellulose) (HPC)
[12] = dose: 400.0 mg/kg/injection, schedule: Q04DX002 (ip), vehicle: Klucel (hydroxypropylcellulose) (HPC)
[13] = dose: 100.0 mg/kg/injection, schedule: Q01DX009 (ip), vehicle: saline
[14] = dose: 200.0 mg/kg/injection, schedule: Q01DX009 (ip), vehicle: saline
[15] = dose: 100.0 mg/kg/injection, schedule: Q01DX001 (ip), vehicle: saline
[16] = dose: 200.0 mg/kg/injection, schedule: Q01DX001 (ip), vehicle: saline
[17] = dose: 400.0 mg/kg/injection, schedule: Q01DX001 (ip), vehicle: saline

Measured: T/C

CCCCCCCCCCCCCCCCCCn1cnc2c(=S)nc[nH]c21
inactive: dose: 12.5 mg/kg/injection, schedule: Q01DX005 (ip), vehicle: other 106 % of control | dose: 25.0 mg/kg/injection, schedule: Q01DX005 (ip), vehicle: other 98 % of control | dose: 50.0 mg/kg/injection, schedule: Q01DX005 (ip), vehicle: other 95 % of control | dose: 100.0 mg/kg/injection, schedule: Q01DX005 (ip), vehicle: other 104 % of control | dose: 200.0 mg/kg/injection, schedule: Q01DX005 (ip), vehicle: other 90 % of control

CC(=O)Nc1ccc(C(C)(C)C)cc1
inactive: dose: 100.0 mg/kg/injection, schedule: Q01DX001 (ip), vehicle: saline with Tween-80 95 % of control | dose: 200.0 mg/kg/injection, schedule: Q01DX001 (ip), vehicle: saline with Tween-80 95 % of control | dose: 400.0 mg/kg/injection, schedule: Q01DX001 (ip), vehicle: saline with Tween-80 95 % of control

CC1(C)C(c2ccccc2)=NN=C1c1ccccc1
inactive: [1] 93 % of control | [2] 90 % of control | [3] 91 % of control | [4] 104 % of control | [5] 112 % of control | [6] 104 % of control

CCN(C(=O)c1ccc(C(=O)N(CC)c2cccc(C)c2)cc1)c1cccc(C)c1
inactive: [7] 94 % of control | [8] 89 % of control | [9] 91 % of control

Cc1cc(O)c(C(C)C)cc1C1=NCC(C)S1 (centres undefined)
inactive: dose: 100.0 mg/kg/injection, schedule: Q01DX005 (ip), vehicle: Klucel (hydroxypropylcellulose) (HPC) 93 % of control | [7] 102 % of control | [10] 100 % of control | dose: 200.0 mg/kg/injection, schedule: Q01DX005 (ip), vehicle: Klucel (hydroxypropylcellulose) (HPC) 90 % of control | [8] 102 % of control | [11] 104 % of control | dose: 400.0 mg/kg/injection, schedule: Q01DX005 (ip), vehicle: Klucel (hydroxypropylcellulose) (HPC) 97 % of control | [9] 87 % of control | [12] 107 % of control

CCOC1OCN(C(C)(C)C)CC1(C)C (centres undefined)
inactive: [13] 118 % of control | [14] 116 % of control

CC(C)(C)N1CC(C(=O)c2ccccc2)C1c1ccccc1 (centres undefined)
inactive: [15] 94 % of control | [7] 96 % of control | [2] 96 % of control and 107 % of control | [16] 94 % of control | [8] 101 % of control | [4] 90 % of control and 94 % of control | [17] 92 % of control | [9] 100 % of control | [6] 96 % of control and 98 % of control

C[CH2][Pb]([CH2]C)([CH2]C)[O]C(=O)c1ccc(N)cc1
inactive: dose: 0.75 mg/kg/injection, schedule: Q01DX009 (ip), vehicle: Klucel (hydroxypropylcellulose) (HPC) 91 % of control | dose: 1.5 mg/kg/injection, schedule: Q01DX009 (ip), vehicle: Klucel (hydroxypropylcellulose) (HPC) 100 % of control | dose: 3.0 mg/kg/injection, schedule: Q01DX009 (ip), vehicle: Klucel (hydroxypropylcellulose) (HPC) 100 % of control | dose: 6.0 mg/kg/injection, schedule: Q01DX009 (ip), vehicle: Klucel (hydroxypropylcellulose) (HPC) 102 % of control | dose: 12.0 mg/kg/injection, schedule: Q01DX009 (ip), vehicle: Klucel (hydroxypropylcellulose) (HPC) 103 % of control | dose: 12.5 mg/kg/injection, schedule: Q04DX002 (ip), vehicle: Klucel (hydroxypropylcellulose) (HPC) 110 % of control | dose: 25.0 mg/kg/injection, schedule: Q04DX002 (ip), vehicle: Klucel (hydroxypropylcellulose) (HPC) 103 % of control

CCOC(=O)c1ccc(NC(=O)CCCCCCCCC(=O)Nc2ccc(C(=O)OCC)cc2)cc1
inactive: [10] 91 % of control | [11] 102 % of control | [12] 95 % of control

CC(=O)NC(C)C(=O)O (centres undefined)
inactive: [15] 90 % of control and 92 % of control | [13] 100 % of control and 111 % of control and 103 % of control | dose: 100.0 mg/kg/injection, schedule: Q04DX002 (ip), vehicle: saline 96 % of control and 111 % of control and 92 % of control | dose: 100.0 mg/kg/injection, schedule: Q04DX003 (ip), vehicle: saline 89 % of control and 103 % of control | [16] 106 % of control and 93 % of control | [14] 93 % of control and 92 % of control and 97 % of control | dose: 200.0 mg/kg/injection, schedule: Q04DX002 (ip), vehicle: saline 105 % of control and 93 % of control and 94 % of control | dose: 200.0 mg/kg/injection, schedule: Q04DX003 (ip), vehicle: saline 90 % of control and 98 % of control | [17] 94 % of control and 93 % of control | dose: 400.0 mg/kg/injection, schedule: Q01DX009 (ip), vehicle: saline 90 % of control and 92 % of control and 100 % of control | dose: 400.0 mg/kg/injection, schedule: Q04DX002 (ip), vehicle: saline 96 % of control and 94 % of control and 101 % of control | dose: 400.0 mg/kg/injection, schedule: Q04DX003 (ip), vehicle: saline 94 % of control and 103 % of control

CC(=O)C(CCS(C)(=O)=O)(CCS(C)(=O)=O)C(=O)O
inactive: dose: 100.0 mg/kg/injection, schedule: Q04DX003 (ip), vehicle: Klucel (hydroxypropylcellulose) (HPC) 107 % of control | dose: 200.0 mg/kg/injection, schedule: Q04DX003 (ip), vehicle: Klucel (hydroxypropylcellulose) (HPC) 94 % of control | dose: 400.0 mg/kg/injection, schedule: Q04DX003 (ip), vehicle: Klucel (hydroxypropylcellulose) (HPC) 103 % of control

CC1=CC(C)(C)NC(=S)N1c1cc(Cl)ccc1Cl
inactive: [1] 87 % of control | [3] 90 % of control | dose: 224.0 mg/kg/injection, schedule: Q01DX Z (ip), vehicle: methylcellulose (MC) 105 % of control | dose: 334.0 mg/kg/injection, schedule: Q01DX Z (ip), vehicle: methylcellulose (MC) 89 % of control | [5] 92 % of control | dose: 500.0 mg/kg/injection, schedule: Q01DX Z (ip), vehicle: methylcellulose (MC) 86 % of control

C=CC[N+](CC=C)(CC=C)C/C=C/C[N+](CC=C)(CC=C)CC=C
inactive: dose: 6.25 mg/kg/injection, schedule: Q01DX009 (ip), vehicle: water 95 % of control | dose: 12.5 mg/kg/injection, schedule: Q01DX009 (ip), vehicle: water 94 % of control and 91 % of control | dose: 25.0 mg/kg/injection, schedule: Q01DX009 (ip), vehicle: water 93 % of control and 101 % of control | dose: 50.0 mg/kg/injection, schedule: Q01DX009 (ip), vehicle: water 104 % of control

CCCN(CCC)CCCCCCO
inactive: [2] 94 % of control | [4] 96 % of control

CS\C(N)=N/N=C/C(C)=N/N=C(/N)SC
inactive: dose: 15.0 mg/kg/injection, schedule: Q01DX Z (ip), vehicle: saline 98 % of control | dose: 30.0 mg/kg/injection, schedule: Q01DX Z (ip), vehicle: saline 100 % of control | dose: 60.0 mg/kg/injection, schedule: Q01DX Z (ip), vehicle: saline 100 % of control and 105 % of control | dose: 120.0 mg/kg/injection, schedule: Q01DX Z (ip), vehicle: saline 100 % of control and 105 % of control | dose: 240.0 mg/kg/injection, schedule: Q01DX Z (ip), vehicle: saline 100 % of control | dose: 480.0 mg/kg/injection, schedule: Q01DX Z (ip), vehicle: saline 105 % of control

N#CC(c1ccccc1)C(O)(c1ccccc1)c1ccccc1 (centres undefined)
inactive: dose: 50.0 mg/kg/injection, schedule: Q01DX001 (ip), vehicle: saline 98 % of control | [15] 98 % of control | [16] 93 % of control | [17] 91 % of control
